ChEMBL document CHEMBL1122870, “Synthesis and LTD4 antagonist activity of 2-norleukotriene analogues” (1985)
Calls of active or inactive are those of the source. No cut-off for these calls is given here.

Tests used:
Assay type in all cases: functional
Cavia porcellus [1] = species on record: Cavia porcellus; assay: Evaluated for antagonist activity on Guinea Pig Tracheal Spiral Strips relative to Kb= 0.1 uM for FPL; details: Trachea
Cavia porcellus [2] = species on record: Cavia porcellus; assay: Evaluated for antagonist activity on Guinea Pig Tracheal Spiral Strips relative to Kb= 0.1 uM for FPL; Inactive (neither agonist nor antagonist activity observed); details: Trachea
Cavia porcellus [3] = species on record: Cavia porcellus; assay: Evaluated for antagonist activity on Guinea Pig Tracheal Spiral Strips relative to Kb= 0.1 uM for FPL; partial agonist; details: Trachea
Cavia porcellus [4] = species on record: Cavia porcellus; assay: Evaluated for antagonist activity on Guinea Pig Tracheal Spiral Strips relative to Kb= 8.1 uM Vs LTE4; details: Trachea
Cavia porcellus [5] = species on record: Cavia porcellus; assay: Evaluated for antagonist activity on Guinea Pig Tracheal Spiral Strips relative to Kb= 0.1 uM for FPL; Partial agonist; details: Trachea, filed as partial agonist

Compound: CCCCCCCCCCCC/C=C\[C@H](SC[C@H](N)C(=O)NCC(=O)O)[C@H](O)CCCO
- Kb (Cavia porcellus [1]): 14 µM

Compound: CCCCCCCCCCCC/C=C\[C@H](SC[C@H](N)C(=O)NCC(=O)O)[C@H](O)CCC(N)=O
- Kb (Cavia porcellus [1]): 7.2 µM

Compound: CCCCCCCCCCCC/C=C\[C@@H](SC[C@H](N)C(=O)O)[C@@H](O)CCC(=O)O
- Kb (Cavia porcellus [1]): 3.4 µM

Compound: CCCCCCCCCCCCCCCCC/C=C\[C@H](SC[C@H](N)C(=O)NCC(=O)O)[C@H](O)CCC(=O)O
- Kb (Cavia porcellus [2]): inactive

Compound: CCCCCCCCCCCC/C=C/[C@H](SC[C@H](N)C(=O)NCC(=O)O)[C@@H](O)CCC(=O)O
- Kb (Cavia porcellus [3]): 40 µM

Compound: CCCCCCCCCCCC/C=C\[C@H](SC[C@H](N)C(=O)NCC(N)=O)[C@H](O)CCC(=O)O
- Kb (Cavia porcellus [1]): 3.5 µM

Compound: CCCCCCCCCCCC/C=C\[C@@H](SC[C@H](N)C(=O)NCC(=O)O)[C@@H](O)CCC(=O)O
- Kb (Cavia porcellus [1]): 10 µM

Compound: CCCCCCCCCCCC/C=C/[C@H](SC[C@H](N)C(=O)NCC(=O)O)[C@H](O)CCC(=O)O
- Kb (Cavia porcellus [3]): 20 µM

Compound: CCCCCCCCCCCC/C=C\[C@H](SC[C@H](N)C(=O)NCC(=O)O)[C@H](O)CCC(=O)O
- Kb (Cavia porcellus [1]): 6.3 µM

Compound: CCCCCCCCCCCC/C=C\[C@H](SC[C@H](N)C(=O)O)[C@H](O)CCC(=O)O
- Kb (Cavia porcellus [4]): 14 µM

Compound: CCCCCCC/C=C\[C@H](SC[C@H](N)C(=O)NCC(=O)O)[C@H](O)CCC(=O)O
- Kb (Cavia porcellus [2]): inactive

Compound: CCCCCCCCCCCC/C=C\[C@H](SC[C@H](N)C(=O)NCCO)[C@H](O)CCCO
- Kb (Cavia porcellus [5]): Partial agonist
